Laboratory results as given in patent publication US20230330254A1 (Regeneron Pharmaceuticals, Inc., priority 2022, published 2023).
Where a SMILES comes first, the peptide text is derived from it. [ ]: non-standard residue; d: D form. The star is where a group is joined. Bip(2'-Et,4'-O(CH2)4NH2) = CCc1cc(OCCCCN)ccc1-c1ccc(C[C@H](N)C(=O)O)cc1; Nva(5-(3,5-Me2Ph)) = Cc1cc(C)cc(CCC[C@H](N)C(=O)O)c1; Ala(1H-tetrazol-5-yl) = N[C@@H](Cc1nnn[nH]1)C(=O)O; αMePhe(2-F) = C[C@](N)(Cc1ccccc1F)C(=O)O; Desaminohistidyl = O=C(CCc1c[nH]cn1)*

Legend:
[1] = tested on: HEK293/CRE-Luc cells; experiment: Luciferase reporter assay, HEK293/CRE-Luc cells without hGLP1R (Example 11); format: cell-based, human; conditions: Experiment A; for HEK293/CRE-LUC S/N / EC50: Table 11, no hGLP1R expression
Excerpt: (§1) To test the activity of GLP1R agonist payloads, GLP1R agonist linker-payloads (LPs), and anti-GLP1R antibody tethered drug conjugates (ATDCs) of the disclosure, a cell-based cAMP responsive luciferase reporter assay was developed. To generate the assay cell line, the firefly luciferase gene was placed under the control of a cAMP response element (CRE) located upstream of a minimal promoter and transfected into HEK293 cells and referred to herein as HEK293/CRE-Luc cells.
(§2) Three-fold serial dilutions of free payloads or LPs were prepared in 100% DMSO, transferred to fresh assay media, and added to the cells at a final constant DMSO concentration of 0.2%. The last well in the plate served as a blank control containing only the assay media and 0.2% DMSO (untreated well) and was plotted as a continuation of the 3-fold serial dilution. Four to six hours later, luciferase activity was determined after the addition of One-Glo™ reagent (Promega, Cat #E6130) to each well. Relative light units (RLUs) were measured on an Envision luminometer (PerkinElmer) and EC50 values were determined using a four-parameter logistic equation over a 12-point dose response curve (GraphPad Prism). The signal to noise (S/N) was determined by taking the ratio of the highest RLU on the dose response curve to the RLU in the untreated wells.

[2] = tested on: HEK293/CRE-Luc cells; experiment: Luciferase reporter assay, HEK293/CRE-Luc cells without GLP1R (Example 17); format: cell-based, human; conditions: HEK293/CRE-Luc cells without hGLP1R; for EC50: read-out: EC50
Procedure, shortened: (§3)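 HEK293 cells carrying a CRE-driven firefly luciferase reporter were exposed to 3-fold serial dilutions of payloads or linker-payloads (12 points, 0.2% DMSO final) for 4–6 h, then luminescence was read. EC50 came from a four-parameter logistic fit; S/N is top RLU over untreated wells, and relative potency and S/N are referenced to M2361.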

[3] = target: T1, human GLP1R (Homo sapiens, UniProt P43220); experiment: Luciferase reporter assay, HEK293/CRE-Luc/hGLP1R cells (Example 11); format: cell-based; design: engineered to express full-length human GLP1R, cynomolgus GLP1R; expressed in transfected cells; host or cells: HEK293/CRE-Luc; conditions: Table 11; Experiment A
Excerpt: as §1, §2
GLP1R agonist linker payloads were conjugated to anti-hGLP1R antibodies via N-terminal heavy or light chain Q tags. Several resulting anti-GLP1R antibody tethered drug conjugates (ATDCs) were tested for activity in the HEK293/CRE-Luc/hGLP1R reporter assay as described above for the free GLP1R payload and linker-payload agonists.

[4] = target: T1, human GLP1R; experiment: Human GLP1R cAMP accumulation assay; format: cell-based; design: HEK293 cells over-expressing full length human GLP-1R were utilized; expressed in transfected cells; host or cells: HEK293 (HEK293/hGLP1R); conditions: HEK293/hGLP1R cells; Table 4; read-out: cAMP EC50
Protocol: 8.1 Human GLP1R cAMP Accumulation Assay (Cyclic AMP Determination)
The functional activity of the test compounds for agonizing GLP1R were evaluated using a cell-based assay. For the assay, HEK293 cells over-expressing full length human GLP-1R were utilized and the downstream cAMP accumulation was assessed as a measure of human GLP-1R stimulation. […] Diluted compounds were transferred to OptiPlates (100 nL/well) using an Echo liquid handler. HEK293/hGLP1R cells were thawed in 37° C. water-bath, washed 2 times with HBSS and re-suspended in assay buffer (HBSS+5 mM HEPES+500 μM IBMX+0.1% BSA). […] After centrifugation, the assay plate was incubated at 23° C. for 30 min. The reaction was terminated by adding 10 μL of lysis buffer containing D2-cAMP and a cAMP-antibody from the cyclic AMP immunoassay kit (Cisbio, Cat #62AM4PEJ). […] The levels of cAMP per well were calculated using a standard curve generated by GraphPad Prism. Percent activity was calculated according to the formula (% Activity=100%*(cAMP level-LC)/(HC-LC)). EC50 values were fitted from a four-parameter logistic equation over a 10-point response curve (GraphPad Prism).

[5] = target: T1, human GLP1R; experiment: Luciferase reporter assay, HEK293/CRE-Luc/hGLP1R (Example 17); format: cell-based; design: engineered to express full-length human GLP1R, cynomolgus GLP1R; expressed in transfected cells; host or cells: HEK293/CRE-Luc; conditions: HEK293/CRE-Luc/hGLP1R; for S/N: highest RLU / RLU of untreated wells; for Relative Potency (% M2361 EC50) / Relative Signal:Noise (% M2361): relative to M2361 of the same experiment
Procedure, shortened: as §3

T1 sequence (P43220 24-463): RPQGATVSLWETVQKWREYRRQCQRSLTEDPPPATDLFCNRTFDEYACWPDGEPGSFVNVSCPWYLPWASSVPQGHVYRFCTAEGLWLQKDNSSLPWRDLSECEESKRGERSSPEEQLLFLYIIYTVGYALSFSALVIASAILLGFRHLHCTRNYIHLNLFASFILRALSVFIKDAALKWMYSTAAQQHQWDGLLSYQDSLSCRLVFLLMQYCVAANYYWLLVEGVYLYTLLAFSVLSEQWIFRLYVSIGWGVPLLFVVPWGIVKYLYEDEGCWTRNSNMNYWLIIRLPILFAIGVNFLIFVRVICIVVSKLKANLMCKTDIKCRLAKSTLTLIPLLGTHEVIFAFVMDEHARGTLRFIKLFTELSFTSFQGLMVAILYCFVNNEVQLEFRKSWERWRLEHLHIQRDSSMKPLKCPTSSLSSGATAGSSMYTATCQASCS

EC50 [3] | HEK293/CRE-LUC/hGLP1R Relative Potency (% P8 EC50) [3] | HEK293/CRE-LUC/hGLP1R S/N [3] | EC50 [4] | S/N [5] | EC50 ([5]; payloads and linker-payloads, experiments A-E, M2361 repeated in each, read-out: EC50) | Relative Potency (% M2361 EC50) [5] | Relative Signal:Noise (% M2361) [5] | Structure (SMILES) | HEK293/CRE-LUC S/N [1] | HEK293/CRE-Luc S/N ([1]; Table 12) | S/N ([2]; ATDCs and references (Table 27)) | S/N ([2]; payloads and linker-payloads) | EC50 [1] | EC50 ([2]; payloads and linker-payloads)
– | – | – | – | – | – | – | – | CC[C@H](C)[C@H](NC(=O)[C@H](Cc1ccccc1)NC(=O)[C@H](CCC(=O)O)NC(=O)[C@H](CCCCN)NC(=O)[C@H](C)NC(=O)[C@H](C)NC(=O)[C@H](CCC(N)=O)NC(=O)CNC(=O)[C@H](CCC(=O)O)NC(=O)[C@H](CC(C)C)NC(=O)[C@H](Cc1ccc(O)cc1)NC(=O)[C@H](CO)NC(=O)[C@H](CO)NC(=O)[C@@H](NC(=O)[C@H](CC(=O)O)NC(=O)[C@H](CO)NC(=O)[C@@H](NC(=O)[C@H](Cc1ccccc1)NC(=O)[C@@H](NC(=O)CNC(=O)[C@H](CCC(=O)O)NC(=O)[C@H](C)NC(=O)[C@@H](N)Cc1c[nH]cn1)[C@@H](C)O)[C@@H](C)O)C(C)C)C(=O)N[C@@H](C)C(=O)N[C@@H](Cc1c[nH]c2ccccc12)C(=O)N[C@@H](CC(C)C)C(=O)N[C@H](C(=O)N[C@@H](CCCCN)C(=O)NCC(=O)N[C@@H](CCCNC(=N)N)C(N)=O)C(C)C [GLP1, glucagon-like peptide 1, reference compound] | 1.3 | 1.4 | 1.4 | 1.3 | – | –
0.0132 nM | 40.3% | 67.8 | 0.117 nM | – | – | – | – | CCc1cc(OCCCCN)ccc1-c1ccc(C[C@H](NC(=O)[C@H](CC(=O)O)NC(=O)[C@H](CO)NC(=O)[C@@H](NC(=O)[C@](C)(Cc2ccccc2F)NC(=O)[C@@H](NC(=O)CNC(=O)[C@H](Cc2nn[nH]n2)NC(=O)[C@@]2(C)CCN(CCc3cnc[nH]3)C2=O)[C@@H](C)O)[C@@H](C)O)C(=O)N[C@@H](CCCc2cc(C)cc(C)c2)C(N)=O)cc1 [P15-R] | 1.1 | – | – | – | > 200 nM | –
– | – | – | 0.136 nM | 65.0 | 0.0316 nM | 16.8% | 98.9% | CCc1cc(OC)ccc1-c1ccc(C[C@H](NC(=O)[C@H](CC(=O)O)NC(=O)[C@H](CO)NC(=O)C(NC(=O)[C@](C)(Cc2ccccc2F)NC(=O)[C@@H](NC(=O)CNC(=O)[C@H](Cc2nn[nH]n2)NC(=O)C(C)(C)C(=O)NCCc2cnc[nH]2)[C@@H](C)O)[C@@H](C)O)C(=O)N[C@@H](CCCc2ccc(OCCCCN)cc2)C(N)=O)cc1 (stereo in doubt) [P24] | – | – | – | 1.0 | – | > 200 nM
– | 46.5% | 76.4 | – | 76.4 | – | 46.5% | 116.2% | CCc1cc(OCCCCN)ccc1-c1ccc(C[C@H](NC(=O)[C@H](CC(=O)O)NC(=O)[C@H](CO)NC(=O)[C@@H](NC(=O)[C@](C)(Cc2ccccc2F)NC(=O)[C@@H](NC(=O)CNC(=O)[C@H](Cc2nn[nH]n2)NC(=O)CNC(=O)CCc2cnc[nH]2)[C@@H](C)O)[C@@H](C)O)C(=O)N[C@@H](CCCc2cc(C)cc(C)c2)C(N)=O)cc1 [P12] (Desaminohistidyl-G[Ala(1H-tetrazol-5-yl)]GT[αMePhe(2-F)]TSD[Bip(2'-Et,4'-O(CH2)4NH2)][Nva(5-(3,5-Me2Ph))]-NH2) | 1.2 | – | – | 1.2 | > 200 nM | > 200 nM
